The values that follow come from patent US20050165109A1, “Pharmaceutical composition with combined active agents and methods for using the same” (priority 2002, published 2005).

For test [1] the following is noted: literature: WO 99/40904, U.S. Pat. No. 5,304,575, Vuorinen-Markkola 1993, Hernandez-Mijares 2000; cited from earlier work.
The subject of test [2] is ob/ob mice. Description: Plasma glucose in ob/ob mice, metformin/ciprofibrate, oral once a day for 4 days. The format is in vivo. To be noted: for Effect on plasma glucose concentrations (in words) / Glucose levels Day 4: ob/ob mice; for Effect on plasma glucose concentrations (in words): 4 days oral, versus vehicle; for Difference between Vehicle & treatment: plasma glucose Day 4, ob/ob mice; for Difference between Vehicle & treatment / Glucose levels Day 4: metformin 90 mg/kg, ciprofibrate 2.5 mg/kg; for Glucose levels Day 4: plasma glucose, oral once a day for 4 days. How it is done: (§1) Experiment was conducted in ob/ob mice, an animal model of diabetes. Male, 8-9 week old ob/ob mice were purchased from Jackson Laboratory (Bar Harbor, Me.) and housed in a temperature and humidity controlled room with 12 hour light (6 am to 6 pm)/dark (6 pm-6 am) cycle and ad libitum of water and regular Purina chow. Animals were screened for plasma glucose levels and randomized into groups for experiments.
Experiment was conducted in ob/ob mice. The experimental condition was the same as Working Example 1.
In this experiment, 8 animals were orally dosed with vehicle, metformin (90 mg/kg), ciprofibrate (2.5 mg/kg), or combination of metformin (90 mg/kg) and ciprofibrate (2.5 mg/kg) once a day for 4 days. Plasma glucose concentrations were determined at the end of the experiment.

The subject of test [3] is ob/ob mice. Description: Plasma glucose in ob/ob mice, metformin/gemfibrozil, oral once a day for 3 days. In kind it is in vivo. To be noted: for Effect on plasma glucose concentrations (in words) / Glucose levels Day 3: ob/ob mice; for Effect on plasma glucose concentrations (in words): 3 days oral, versus vehicle; for Difference between Vehicle & treatment: plasma glucose Day 3, ob/ob mice; for Difference between Vehicle & treatment / Glucose levels Day 3: metformin 90 mg/kg, gemfibrozil 100 mg/kg; for Glucose levels Day 3: plasma glucose, oral once a day for 3 days. How it is done:
as §1
In this experiment, 8 animals were orally dosed with vehicle, metformin (90 mg/kg), gemfibrozil (100 mg/kg), or combination of metformin (90 mg/kg) and gemfibrozil (100 mg/kg) once a day for 3 days. Plasma glucose concentrations were determined at the end of the experiment.

Consider `CC(C)(Oc1ccc(C2CC2(Cl)Cl)cc1)C(=O)O` (stereo not shown) [Ciprofibrate, ciprofibrate], for which the “Glucose-lowering effect (in words)” value in test [1] is recorded as “lack of glucose-lowering effect”. Besides, in the test on ob/ob mice [2], the “Effect on plasma glucose concentrations (in words)” value is “did not have significant effect on glucose levels”, the “Difference between Vehicle & treatment” value was -32.2 mg/dL and the “Glucose levels Day 4” value stood at 351.1 ± 23.1 mg/dL. For the same compound, the “Effect on plasma glucose concentrations (in words)” value in the test on ob/ob mice [2] (listed as ciprofibrate) is “minimum effect on reducing plasma glucose and it was not statistically significant”.

Turning to `Cc1ccc(C)c(OCCCC(C)(C)C(=O)O)c1` [Gemfibrozil, gemfibrozil], the “Glucose-lowering effect (in words)” value in test [1] is given as “lack of glucose-lowering effect”. In the test with ob/ob mice [3], the “Effect on plasma glucose concentrations (in words)” value is “did not have significant effect on glucose level”, the “Difference between Vehicle & treatment” value was -57.1 mg/dL and the “Glucose levels Day 3” value came to 349.7 ± 39.0 mg/dL. Besides, the “Effect on plasma glucose concentrations (in words)” value in the test on ob/ob mice [3] (listed as gemfibrozil) was “minimum reduction of plasma glucose and it was not statistically significant”.

As for `CN(C)C(=N)N=C(N)N` [Metformin, metformin], in the test on ob/ob mice [2], the “Effect on plasma glucose concentrations (in words)” value is “significantly reduced plasma glucose concentrations”, the “Difference between Vehicle & treatment” value was -84.1 mg/dL and the “Glucose levels Day 4” value came out at 299.2 ± 24.9 mg/dL. In the test on ob/ob mice [3], the “Effect on plasma glucose concentrations (in words)” value is given as “significantly reduced plasma glucose concentrations”, the “Difference between Vehicle & treatment” value is -88.2 mg/dL and the “Glucose levels Day 3” value came to 318.6 ± 29.3 mg/dL.
